Assay results published in US9732094B2, “Arylquinazolines” (Merck Patent GmbH, priority 2013, dated 2017).
Read-outs that look alike come from different tables or passages of the source. Values belong to the molecule of their own block, whether it stands above or below them.

Legend:
DNA-PK = DNA-PK (Homo sapiens (Human), UniProt P78527); assay: DNA-PK assay (biochemical), flashplate 33P-ATP kinase assay
Summary of the method: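 Radiometric kinase reaction in streptavidin-coated flashplates, stopped with 200 mM EDTA, then 30 min room-temperature incubation and saline washes.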

Kv11.1 (hERG) = Kv11.1 (hERG) (Homo sapiens (Human), UniProt Q12809); assay: Kv11.1 (hERG) ion channel activity (patch clamp assay), HEK293 cells transfected with hERG gene
Procedure: C) Kv11.1 (hERG) Ion Channel Activity (Patch Clamp Assay)
The patch-clamp measurement was carried out at room temperature in whole-cell configuration on human embryonic kidney cells (HEK293) which have been transfected in a stable manner with the hERG gene.
The whole-cell configurations were carried out using an automated patch clamp device (Patchliner™, Nanion Technologies, Munich). […] The glass chip has a hole of defined size to which the cell is transferred into the Gigaseal by application of a reduced pressure and brought into the whole-cell configuration. Buffer, cell suspension and test substances were added to microchannels of the chip using a Teflon-coated pipette. The cells were clamped to a holding potential of −80 mV. For measurement of substance-promoted inhibition of the Kv11.1 channel, the following voltage protocol was applied at 10-second intervals: 51 ms/−80 mV, 500 ms/+40 mV, 500 ms/−40 mV, 200 ms/−80 mV. The leakage current is subtracted by means of the P4 method. The cells were resuspended in extracellular buffer (EC) and applied to the chip. After the cell had been collected, the seal was improved by addition of a seal enhancer buffer. As soon as the whole-cell configuration had been reached, the seal enhancer buffer was washed out and replaced by extracellular buffer. The measurement started in EC for 1.5 min. DMSO (vehicle control, 0.1% of DMSO) was then applied, and the control current was recorded for 3 min. The test substance was subsequently added twice in the same concentration, and the potassium current was measured for 3.5 min in each case.
The reference substance used was the Kv11.1 (hERG) ion channel blocker quinidine. The effects of test substances and quinidine were standardised to the associated vehicle control. The effect on the Kv11.1 (hERG) channel activity was assessed from the potassium current at −40 mV. For the calculation, the current was evaluated for the respective final trace.
During the measurement, an aliquot of the test substance was taken for concentration determination. The sample was measured immediately by HPLC, and the final concentration was determined from a calibration curve.

[1] = biological target: DNA-PK phosphorylation at serine 2056 (Homo sapiens (Human), UniProt P78527); assay: DNA-PK phosphorylation at serine 2056 (cellular), bleomycin-treated HCT116 cells, ELISA; type: cell-based; details: read-out: IC50 pDNA-PK
Summary of the method: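 HCT116 cells grown overnight were co-treated with 10 μM bleomycin and test compound for 6 h at 37 °C. Phospho-DNA-PK was quantified by chemiluminescent ELISA and normalised to total DNA-PKcs signal, with DMSO control as blank.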

[2] = read-out: Ki [Kv1.11 hERG], hERG patch clamp assay (cells without asterisk)
[3] = cellular DNA-PK phosphorylation at serine 2056, HCT116
[4] = read-out: Ki [Kv1.11 hERG], Table 5
[5] = Ki [Kv1.11 hERG], patch clamp, HEK293 transfected with hERG gene
[6] = cellular, HCT116 cells, 10 μM bleomycin, six hours
[7] = read-out: Ki [Kv1.11 hERG], patch clamp, HEK293 transfected with hERG gene
[8] = Ki [Kv1.11 hERG], hERG patch clamp assay (cells without asterisk)

Chain of Kv11.1 (hERG) (Q12809 whole entry): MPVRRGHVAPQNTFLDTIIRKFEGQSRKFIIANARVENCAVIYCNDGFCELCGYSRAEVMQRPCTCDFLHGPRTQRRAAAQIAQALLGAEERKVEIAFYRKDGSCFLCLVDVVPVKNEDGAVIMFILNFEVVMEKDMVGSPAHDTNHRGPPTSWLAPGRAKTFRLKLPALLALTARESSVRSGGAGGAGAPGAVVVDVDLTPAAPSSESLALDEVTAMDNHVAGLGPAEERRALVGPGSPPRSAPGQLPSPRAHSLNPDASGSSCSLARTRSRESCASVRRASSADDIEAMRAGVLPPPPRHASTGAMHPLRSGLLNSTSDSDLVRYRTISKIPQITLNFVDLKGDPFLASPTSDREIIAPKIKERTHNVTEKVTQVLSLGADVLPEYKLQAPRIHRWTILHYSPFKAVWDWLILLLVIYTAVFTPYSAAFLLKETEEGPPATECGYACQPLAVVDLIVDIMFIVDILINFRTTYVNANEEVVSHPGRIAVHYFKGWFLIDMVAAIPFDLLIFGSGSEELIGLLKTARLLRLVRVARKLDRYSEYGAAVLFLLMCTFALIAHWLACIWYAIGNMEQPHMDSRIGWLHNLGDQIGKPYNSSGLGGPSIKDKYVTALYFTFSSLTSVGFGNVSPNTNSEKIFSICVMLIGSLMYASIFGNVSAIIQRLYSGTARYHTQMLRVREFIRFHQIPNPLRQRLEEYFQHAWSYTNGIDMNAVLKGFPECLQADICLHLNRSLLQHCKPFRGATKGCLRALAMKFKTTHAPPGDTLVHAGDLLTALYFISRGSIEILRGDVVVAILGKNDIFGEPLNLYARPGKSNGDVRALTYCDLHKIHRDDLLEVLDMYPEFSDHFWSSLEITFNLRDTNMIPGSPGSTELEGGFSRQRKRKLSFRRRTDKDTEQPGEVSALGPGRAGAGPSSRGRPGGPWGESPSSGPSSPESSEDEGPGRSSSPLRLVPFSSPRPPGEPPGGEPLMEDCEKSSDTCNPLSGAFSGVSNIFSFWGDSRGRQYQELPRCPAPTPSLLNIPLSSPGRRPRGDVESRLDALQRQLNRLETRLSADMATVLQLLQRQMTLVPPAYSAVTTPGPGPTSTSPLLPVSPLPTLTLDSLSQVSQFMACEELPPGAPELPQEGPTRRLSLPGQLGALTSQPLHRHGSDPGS

IC50 (DNA-PK; biochemical DNA-PK assay): 0.007 to 0.03 µM
IC50 [1, 3]: 10 to 30 µM
SMILES: Oc1ncnc(C(O)c2cc(-c3ncnc4cc(N5CCOCC5)ccc34)ccc2Cl)c1Cl (stereo not drawn) [Example 330, 5-Chloro-6-{[2-chloro-5-(7-morpholin-4-yl-quinazolin-4-yl)-phenyl]hydroxy-methyl}pyrimidin-4-ol]
Ki (Kv11.1 (hERG); [2]): > 25 µM

IC50 (DNA-PK; biochemical DNA-PK assay): < 0.003 µM
IC50 [1, 3]: < 0.5 µM
SMILES: OC(c1cc(-c2ncnc3cc(N4CCOCC4)ccc23)ccc1F)c1ncnc2ccsc12 (stereo not drawn) [Example 405, [2-Fluoro-5-(7-morpholin-4-yl-quinazolin-4-yl)-phenyl]thieno[3,2-d}-pyrimidin-4-yl-methanol]
Ki (Kv11.1 (hERG); [2]): < 10 µM

IC50 (DNA-PK; enzymatic, 5 μM ATP): < 0.003 µM
IC50 [1, 6]: < 0.5 µM
SMILES: O[C@H](c1ccc(F)c(-c2ncnc3cc(N4CCOCC4)ccc23)c1)c1nccnc1Cl [Example 27, (R)-(3-Chloro-pyrazin-2-yl)-[4-fluoro-3-(7-morpholin-4-yl-quinazolin-4-yl)phenyl]-methanol]
Ki (Kv11.1 (hERG); [7]): > 25 µM

IC50 (DNA-PK; Table 5): 0.007 to 0.03 µM
IC50 ([1]; Table 5, HCT116 cells): 10 to 30 µM
SMILES: CC(O)(c1cncc(-c2ncnc3cc(N4CCOCC4)ccc23)c1)c1nccs1 (stereo not drawn) [Example 152, 1-[5-(7-Morpholin-4-ylquinazolin-4-yl)-pyridin-3-yl]-1-thiazol-2-ylethanol]
Ki (Kv11.1 (hERG); [4]): > 25 µM

IC50 (DNA-PK; biochemical DNA-PK assay): 0.003 to 0.007 µM
IC50 [1, 3]: < 0.5 µM
SMILES: OC(c1cccnn1)c1cc(-c2ncnc3cc(N4CCOCC4)ccc23)ccc1Cl (single isomer, unassigned) [Example 470, [2-Chloro-5-(7-morpholin-4-yl-quinazolin-4-yl)-phenyl]pyridazin-3-yl-methanol]
Ki (Kv11.1 (hERG); [2]): > 25 µM

IC50 (DNA-PK; enzymatic, 5 μM ATP): 0.003 to 0.007 µM
IC50 [1, 6]: 5 to 10 µM
SMILES: COc1cnc(C(O)c2ccc(F)c(-c3ncnc4cc(N5CCOCC5)ccc34)c2)nc1 (stereo not drawn) [Example 69, [4-Fluoro-3-(7-morpholin-4-yl-quinazolin-4-yl)phenyl]-(5-methoxypyrimidin-2-yl)methanol]
Ki (Kv11.1 (hERG); [7]): > 25 µM

IC50 (DNA-PK; biochemical DNA-PK assay): 0.003 to 0.007 µM
IC50 [1, 3]: < 0.5 µM
SMILES: OC(c1cc(-c2ncnc3cc(N4CCOCC4)ccc23)c(F)cc1Cl)c1nccn2ccnc12 (stereo not drawn) [Example 397, [2-Chloro-4-fluoro-5-(7-morpholin-4-yl-quinazolin-4-yl)-phenyl]imidazo-[1,2-a]pyrazin-8-yl-methanol]
Ki (Kv11.1 (hERG); [2]): > 25 µM

IC50 (DNA-PK; biochemical DNA-PK assay): 0.007 to 0.03 µM
IC50 [1, 3]: 0.5 to 5 µM
SMILES: Cc1ncc(C(O)c2ccc(F)c(-c3ncnc4cc(N5CCOCC5)ccc34)c2)nc1C (stereo not drawn) [Example 314, (5,6-Dimethyl-pyrazin-2-yl)-[4-fluoro-3-(7-morpholin-4-yl-quinazolin-4-yl)-phenyl]methanol]
Ki (Kv11.1 (hERG); [8]): 15 to 25 µM

IC50 (DNA-PK; biochemical DNA-PK assay): 0.003 to 0.007 µM
IC50 [1, 3]: 0.5 to 5 µM
SMILES: Cn1c(C(O)c2ccc(F)c(-c3ncnc4cc(N5CCOCC5)ccc34)c2)nccc1=O (stereo not drawn) [Example 360, 2-{[4-Fluoro-3-(7-morpholin-4-yl-quinazolin-4-yl)-phenyl]hydroxy-methyl}-3-methyl-3H-pyrimidin-4-one]
Ki (Kv11.1 (hERG); [2]): > 25 µM

IC50 (DNA-PK; biochemical DNA-PK assay): < 0.003 µM
IC50 [1, 3]: < 0.5 µM
SMILES: OC(c1cc(-c2ncnc3cc(N4CCOCC4)ccc23)ccc1F)c1ncnc2sccc12 (stereo not drawn) [Example 406, [2-Fluoro-5-(7-morpholin-4-yl-quinazolin-4-yl)-phenyl]thieno[2,3-d}-pyrimidin-4-yl-methanol]
Ki (Kv11.1 (hERG); [8]): 10 to 15 µM

Continued, molecule first:

SMILES: CN1CCN(c2nccnc2C(O)c2ccc(F)c(-c3ncnc4cc(N5CCOCC5)ccc34)c2)C1=O (stereo not drawn) [Example 424, 1-(3-{[4-Fluoro-3-(7-morpholin-4-yl-quinazolin-4-yl)-phenyl]hydroxy-methyl}pyrazin-2-yl)-3-methyl-imidazolidin-2-one]
IC50 (DNA-PK; biochemical DNA-PK assay): > 0.03 µM
Ki (Kv11.1 (hERG); [2]): > 25 µM
IC50 [1, 3]: 10 to 30 µM

SMILES: Fc1ccc(C(OC(F)F)c2nccs2)cc1-c1ncnc2cc(N3CCOCC3)ccc12 (stereo not drawn) [Example 199, 4-[5-(Difluoro-methoxy-thiazol-2-ylmethyl)-2-fluoro-phenyl]-7-morpholin-4-yl-quinazoline]
IC50 (DNA-PK; Table 5): 0.003 to 0.007 µM
Ki (Kv11.1 (hERG); [4]): < 10 µM
IC50 ([1]; Table 5, HCT116 cells): 10 to 30 µM

SMILES: Cn1c(C(O)c2cc(-c3ncnc4cc(N5CCOCC5)ccc34)c(F)cc2F)cccc1=O (stereo not drawn) [Example 436, 6-{[2,4-Difluoro-5-(7-morpholin-4-yl-quinazolin-4-yl)-phenyl]hydroxy-methyl}-1-methyl-1H-pyridin-2-one]
IC50 (DNA-PK; biochemical DNA-PK assay): 0.003 to 0.007 µM
Ki (Kv11.1 (hERG); [2]): > 25 µM
IC50 [1, 3]: 0.5 to 5 µM

SMILES: CSc1ccc(C(O)c2cc(-c3ncnc4cc(N5CCOCC5)ccc34)c(F)cc2Cl)nn1 (stereo not drawn) [Example 108, [2-Chloro-4-fluoro-5-(7-morpholin-4-yl-quinazolin-4-yl)-phenyl]-(6-methyl-sulfanylpyridazin-3-yl)methanol]
IC50 (DNA-PK; enzymatic, 5 μM ATP): 0.003 to 0.007 µM
Ki (Kv11.1 (hERG); [5]): 15 to 25 µM
IC50 [1, 6]: < 0.5 µM

SMILES: Cc1nccnc1C(C(N)=O)c1ccc(F)c(-c2ncnc3cc(N4CCOCC4)ccc23)c1 (stereo not drawn) [Example 327, 2-[4-Fluoro-3-(7-morpholin-4-yl-quinazolin-4-yl)-phenyl]-2-{3-methyl-pyrazin-2-yl)-acetamide]
IC50 (DNA-PK; biochemical DNA-PK assay): 0.007 to 0.03 µM
Ki (Kv11.1 (hERG); [2]): > 25 µM
IC50 [1, 3]: 10 to 30 µM

SMILES: Cn1nc(C(O)c2ccc(F)c(-c3ncnc4cc(N5CCOCC5)ccc34)c2F)ccc1=O (stereo not drawn) [Example 220, 6-{[2,4-Difluoro-3-(7-morpholin-4-yl-quinazolin-4-yl)-phenyl]hydroxy-methyl}-2-methyl-2H-pyridazin-3-one]
IC50 (DNA-PK; Table 7): > 0.03 µM
Ki (Kv11.1 (hERG); read-out: Ki [Kv1.11 hERG], Table 7): > 25 µM
IC50 ([1]; Table 7, HCT116 cells): 5 to 10 µM

SMILES: NC(=O)C(c1ccc2nccn2n1)c1cc(-c2ncnc3cc(N4CCOCC4)ccc23)c(F)cc1Cl (stereo not drawn) [Example 323, 2-[2-Chloro-4-fluoro-5-(7-morpholin-4-yl-quinazolin-4-yl)-phenyl]-2-imidazo-[1,2-b]pyridazin-6-yl-acetamide]
IC50 (DNA-PK; biochemical DNA-PK assay): 0.003 to 0.007 µM
Ki (Kv11.1 (hERG); [8]): 15 to 25 µM
IC50 [1, 3]: 0.5 to 5 µM

SMILES: Cc1nccnc1[C@H](O)c1ccc(F)c(-c2ncnc3cc(N4CCOCC4)cc(F)c23)c1 [Example 248, (R)-[4-Fluoro-3-(5-fluoro-7-morpholin-4-ylquinazolin-4-yl)-phenyl]-(3-methyl-pyrazin-2-yl)-methanol]
IC50 (DNA-PK; biochemical DNA-PK assay): < 0.003 µM
Ki (Kv11.1 (hERG); [2]): > 25 µM
IC50 [1, 3]: < 0.5 µM

SMILES: O=C(O)COc1ccc(C(O)c2cc(-c3ncnc4cc(N5CCOCC5)ccc34)c(F)cc2Cl)nn1 (stereo not drawn) [Example 113, (6-{[2-Chloro-4-fluoro-5-(7-morpholin-4-yl-quinazolin-4-yl)-phenyl]hydroxy-methyl}pyridazin-3-yl-oxy)acetic acid]
IC50 (DNA-PK; enzymatic, 5 μM ATP): 0.003 to 0.007 µM
Ki (Kv11.1 (hERG); [7]): > 25 µM
IC50 [1, 6]: 10 to 30 µM

SMILES: CC(C)n1cc(C(O)c2ccc(F)c(-c3ncnc4cc(N5CCOCC5)ccc34)c2)cn1 (stereo not drawn) [Example 197, [4-Fluoro-3-(7-morpholin-4-yl-quinazolin-4-yl)-phenyl]-(1-isopropyl-1H-pyrazol-4-yl)-methanol]
IC50 (DNA-PK; Table 5): 0.003 to 0.007 µM
Ki (Kv11.1 (hERG); [4]): < 10 µM
IC50 ([1]; Table 5, HCT116 cells): 5 to 10 µM

SMILES: Cn1c(C(O)c2ccc(F)c(-c3ncnc4cc(N5CCOCC5)ccc34)c2)cccc1=O (stereo not drawn) [Example 375, 6-{[4-Fluoro-3-(7-morpholin-4-yl-quinazolin-4-yl)-phenyl]hydroxy-methyl}-1-methyl-1H-pyridin-2-one]
IC50 (DNA-PK; biochemical DNA-PK assay): < 0.003 µM
Ki (Kv11.1 (hERG); [2]): > 25 µM
IC50 [1, 3]: 0.5 to 5 µM

SMILES: O=c1ccc(C(O)c2cc(-c3ncnc4cc(N5CCOCC5)ccc34)c(F)cc2Cl)n[nH]1 (stereo not drawn) [Example 92, 3-[[2-Chloro-4-fluoro-5-(7-morpholino-quinazolin-4-yl)phenyl]-hydroxymethyl]-1H-pyridazin-6-one]
IC50 (DNA-PK; enzymatic, 5 μM ATP): < 0.003 µM
Ki (Kv11.1 (hERG); [7]): > 25 µM
IC50 [1, 6]: < 0.5 µM

SMILES: NC(=O)C(c1cc(-c2ncnc3cc(N4CCOCC4)ccc23)c(F)cc1Cl)c1ncccc1Cl (stereo not drawn) [Example 289, 2-[2-Chloro-4-fIuoro-5-(7-morpholin-4-yl-quinazolin-4-yl)-phenyl]-2-(3-chloro-pyridin-2-yl)-acetamide]
IC50 (DNA-PK; biochemical DNA-PK assay): < 0.003 µM
Ki (Kv11.1 (hERG); [8]): 15 to 25 µM
IC50 [1, 3]: 0.5 to 5 µM

SMILES: Cc1nccnc1C(O)c1ccc(F)c(-c2ncnc3cc(N4CCOCC4)ccc23)c1 (stereo not drawn) [Example 78, [4-Fluoro-3-(7-morpholin-4-yl-quinazolin-4-yl)phenyl]-(3-methylpyrazin-2-yl)-methanol]
IC50 (DNA-PK; enzymatic, 5 μM ATP): 0.003 to 0.007 µM
Ki (Kv11.1 (hERG); [5]): 15 to 25 µM
IC50 [1, 6]: < 0.5 µM

SMILES: COc1ccc(C(O)(c2cc(-c3ncnc4cc(N5CCOCC5)ccc34)c(F)cc2Cl)C(F)F)nn1 (stereo not drawn) [Example 123, 1-[2-Chloro-4-fluoro-5-(7-morpholin-4-yl-quinazolin-4-yl)-phenyl]-2,2-difluoro-1-(6-methoxy-pyridazin-3-yl)-ethanol]
IC50 (DNA-PK; enzymatic, 5 μM ATP): 0.007 to 0.03 µM
Ki (Kv11.1 (hERG); [7]): > 25 µM
IC50 [1, 6]: 10 to 30 µM

SMILES: OC(c1ccnnc1)c1cc(-c2ncnc3cc(N4CCOCC4)ccc23)c(F)cc1Cl (stereo not drawn) [Example 36, [2-Chloro-4-fluoro-5-(7-morpholin-4-yl-quinazolin-4-yl)phenyl]-pyridazin-4-ylmethanol]
IC50 (DNA-PK; enzymatic, 5 μM ATP): < 0.003 µM
Ki (Kv11.1 (hERG); [7]): > 25 µM
IC50 [1, 6]: < 0.5 µM

SMILES: OC(c1cc(-c2ncnc3cc(N4CCOCC4)ccc23)c(F)cc1F)c1nccnc1OC(F)F (stereo not drawn) [Example 450, (3-Difluoromethoxy-pyrazin-2-yl)-[2,4-difluoro-5-(7-morpholin-4-yl-quinazolin-4-yl)-phenyl]methanol]
IC50 (DNA-PK; biochemical DNA-PK assay): 0.007 to 0.03 µM
Ki (Kv11.1 (hERG); [8]): 15 to 25 µM
IC50 [1, 3]: 5 to 10 µM

SMILES: CNCc1csc(C(O)c2cc(-c3ncnc4cc(N5CCOCC5)ccc34)c(F)cc2Cl)n1 (stereo not drawn) [Example 143, [2-Chloro-4-fluoro-5-(7-morpholin-4-ylquinazolin-4-yl)phenyl]-(4-methylaminomethylthiazol-2-yl)methanol]
IC50 (DNA-PK; Table 5): 0.007 to 0.03 µM
Ki (Kv11.1 (hERG); Ki [Kv1.11 hERG], Table 5): 10 to 15 µM
IC50 ([1]; Table 5, HCT116 cells): 5 to 10 µM
